In PubChem BioAssay AID1259408 (Genetic Toxicology Data Bank (GENE-TOX), 2018):
Active and inactive are the calls of the source. No rule for the calls is given here.

System: GENE-TOX genotoxicity assays, various organisms and cells
Assay: GENE-TOX mutagenicity studies
Settings: for call: Assay Type: In vivo carcinogenicity studies
[1] = Species/Cell Type: Nonhuman, Assay Code: CCG+, Evaluation Type: Evaluation A (Pre-1980)
[2] = Species/Cell Type: Salmonella typhimurium (one or more of the five standard strains: TA98, TA100, TA1535, TA1537, and TA1538), Assay Type: Histidine reverse gene mutation, Ames assay, Assay Code: SAL+*, Activation: With metabolic activation, Evaluation Type: Evaluation A (Pre-1980)
[3] = Species/Cell Type: Salmonella typhimurium (one or more of the five standard strains: TA98, TA100, TA1535, TA1537, and TA1538), Assay Type: Histidine reverse gene mutation, Ames assay, Assay Code: SAL+, Evaluation Type: Evaluation A (Pre-1980)
[4] = Species/Cell Type: Salmonella typhimurium (one or more of the five standard strains: TA98, TA100, TA1535, TA1537, and TA1538), Assay Type: Histidine reverse gene mutation, Ames assay, Assay Code: SALT, Evaluation Type: Evaluation A (Pre-1980)
[5] = Species/Cell Type: Human lymphocytes, Assay Type: Sister-chromatid exchange (SCE) in vivo, Assay Code: SCY+, Evaluation Type: Evaluation B (Post-1980)
[6] = Species/Cell Type: Rodents, Sex: Male, Assay Type: Dominant lethal test, Assay Code: DLT+, Evaluation Type: Evaluation A (Pre-1980)
[7] = Species/Cell Type: Bacillus subtilis (H17 vs M45), Assay Type: Rec-assay, spot test, DNA effects (bacterial DNA repair), Assay Code: REW-, Evaluation Type: Evaluation A (Pre-1980)
[8] = Species/Cell Type: Drosophila melanogaster, Assay Type: Sex-linked recessive lethal gene mutation, Assay Code: SRLT, Evaluation Type: Evaluation A (Pre-1980)
[9] = Species/Cell Type: Drosophila melanogaster, Assay Type: Sex-linked recessive lethal gene mutation, Assay Code: SRL+, Evaluation Type: Evaluation A (Pre-1980)
[10] = Species/Cell Type: Salmonella typhimurium, Assay Type: Forward and reverse gene mutation, host-mediated assay, Assay Code: HMA+, Evaluation Type: Evaluation A (Pre-1980)
[11] = Species/Cell Type: Saccharomyces cerevisiae, Assay Type: Mitotic recombination or gene conversion, Assay Code: YEC+, Evaluation Type: Evaluation A (Pre-1980)
[12] = Species/Cell Type: Human lymphocytes, Assay Type: Sister-chromatid exchange (SCE) in vitro, Assay Code: SCL+D, Dose Response: With dose response, Evaluation Type: Evaluation A (Pre-1980)
[13] = Species/Cell Type: Human, Assay Type: Sister-chromatid exchange (SCE) in vitro, Assay Code: SC1+D, Dose Response: With dose response, Evaluation Type: Evaluation A (Pre-1980)
[14] = Species/Cell Type: Nonhuman, Assay Type: Sister-chromatid exchange (SCE) in vivo, Assay Code: SC3+D, Dose Response: With dose response, Evaluation Type: Evaluation B (Post-1980)
[15] = Species/Cell Type: Nonhuman, Assay Type: Sister-chromatid exchange (SCE) in vitro, Assay Code: SC2+D, Dose Response: With dose response, Evaluation Type: Evaluation B (Post-1980)

Compound: NC(=O)N/N=C(/CCN1CCCCC1)c1ccc([N+](=O)[O-])o1
- mutagenic call (Species/Cell Type: Escherichia coli WP2, Assay Type: Tryptophan reverse gene mutation, Assay Code: WP2+, Evaluation Type: Evaluation A (Pre-1980)): active; positive
- mutagenic call (Species/Cell Type: Escherichia coli WP2 UVRA, Assay Type: Tryptophan reverse gene mutation, Assay Code: WPU+, Evaluation Type: Evaluation A (Pre-1980)): active; positive

Compound: c1ccc2c(c1)cc1ccc3cc4ccccc4c4ccc2c1c34
- call [1]: active; positive
- mutagenic call [2]: active; positive

Compound: O=[N+]([O-])c1cccc2cc[nH]c12
- mutagenic call [3]: active; positive

Compound: O=S1(=O)OC2(c3ccc(O)cc3Oc3cc(O)ccc32)c2ccccc21
- mutagenic call [4]: no conclusion

Compound: CC(C)Cc1ccc(C(C)C(=O)O)cc1 (centres undefined)
- mutagenic call [5]: active; positive

Compound: O=Nn1c2ccccc2c2ccccc21
- mutagenic call (Species/Cell Type: Rat primary hepatocytes, Assay Type: Unscheduled DNA synthesis (UDS) in vitro, DNA effects, Assay Code: UDP-, Evaluation Type: Evaluation A (Pre-1980)): inactive; negative

Compound: O=[N+]([O-])c1cccc2ncccc12
- mutagenic call [3]: active; positive

Compound: CCCCC(CC)COC(=O)c1ccccc1C(=O)OCC(CC)CCCC (centres undefined)
- call [1]: active; positive
- mutagenic call (Species/Cell Type: Nonhuman, Assay Type: Sister-chromatid exchange (SCE) in vitro, Assay Code: SC2T, Evaluation Type: Evaluation A (Pre-1980)): no conclusion
- mutagenic call [6]: active; positive

Compound: Nc1ccc(N=Nc2ccc(S(=O)(=O)O)cc2)c(N)c1
- mutagenic call [2]: active; positive

Compound: OCC1=C[C@H](N[C@H]2C[C@H](CO)[C@@H](O[C@@H]3O[C@H](CO)[C@@H](O)[C@H](O)[C@H]3O)[C@H](O)[C@H]2O)[C@H](O)[C@@H](O)[C@@H]1O
- mutagenic call [7]: inactive; negative

Compound: Cc1ccc2ccc3c(C)c4ccccc4c4ccc1c2c34
- mutagenic call [8]: no conclusion

Compound: O=NN1CCC(Cl)C(Cl)C1 (centres undefined)
- mutagenic call (Species/Cell Type: Drosophila melanogaster, Assay Type: Aneuploidy, partial sex chromosome loss, chromosome aberrations, Assay Code: DAPT, Evaluation Type: Evaluation A (Pre-1980)): no conclusion
- mutagenic call (Species/Cell Type: Drosophila melanogaster, Assay Type: Aneuploidy, whole sex chromosome loss, chromosome aberrations, Assay Code: DACT, Evaluation Type: Evaluation A (Pre-1980)): no conclusion
- mutagenic call [9]: active; positive

Compound: NC(=S)NCCNC(N)=S
- mutagenic call [10]: active; positive

Compound: COc1c(O)c2c(c3cc(C(=O)N4CCc5c4c(O)c(OC)c4[nH]c(C(=O)N6C[C@H]7C[C@@]78C6=CC(=O)c6[nH]cc(C)c68)cc54)[nH]c13)CCN2C(N)=O
- mutagenic call (Species/Cell Type: Mammalian polychromatic erythrocytes, Assay Type: Micronucleus test, chromosome aberrations, Assay Code: MNT+, Evaluation Type: Evaluation B (Post-1980)): active; positive

Compound: Cc1cc(N(CCCl)CCCl)ccc1N=Nc1ccccc1C(=O)O
- mutagenic call [9]: active; positive

Compound: O=NN(CCCl)C(=O)NC(NC(=O)N(CCCl)N=O)(c1ccccc1)c1ccccc1
- mutagenic call [9]: active; positive

Compound: CS(=O)(=O)OCCNC(=O)N(CCCl)N=O
- mutagenic call [9]: active; positive
- mutagenic call [11]: active; positive

Compound: CCc1nc(N)nc(N)c1-c1ccc(Cl)cc1
- mutagenic call [4]: no conclusion

Compound: O=C(O)c1ccccc1C(=O)Nc1cccc2ccccc12
- mutagenic call (Species/Cell Type: Hordeum vulgare (barley), Assay Type: Chromosome aberrations, Assay Code: HOC+, Evaluation Type: Evaluation A (Pre-1980)): active; positive
- mutagenic call (Species/Cell Type: Vicia faba, Assay Type: Chromosome aberrations, Assay Code: VIC+, Evaluation Type: Evaluation A (Pre-1980)): active; positive

Compound: CN=c1ccc2cc3ccc(NC)cc3oc-2c1
- mutagenic call [8]: no conclusion

Compound: COc1cc(CNC(=O)CCCC/C=C/C(C)C)ccc1O
- mutagenic call (Species/Cell Type: Mammalian polychromatic erythrocytes, Assay Type: Micronucleus test, chromosome aberrations, Assay Code: MNT+U, Dose Response: Unconfirmed positive response, Evaluation Type: Evaluation B (Post-1980)): active; positive

Compound: O=C1NS(=O)(=O)c2ccccc21
- mutagenic call (Species/Cell Type: Allium cepa, Assay Type: Chromosome aberrations, Assay Code: ALC+D, Dose Response: With dose response, Evaluation Type: Evaluation A (Pre-1980)): active; positive
- mutagenic call [9]: active; positive
- mutagenic call (Species/Cell Type: Drosophila melanogaster, Sex: Male, Assay Type: Heritable translocation test, chromosome aberrations, Assay Code: DHTT, Evaluation Type: Evaluation A (Pre-1980)): no conclusion
- mutagenic call (Species/Cell Type: Escherichia coli polA (W3110 vs P3478), Assay Type: Rec-assay, DNA effects (bacterial DNA repair), Assay Code: RE2-, Evaluation Type: Evaluation A (Pre-1980)): inactive; negative
- mutagenic call (Species/Cell Type: Escherichia coli polA (W3119 vs P3478), Assay Type: Rec-assay, DNA effects (bacterial DNA repair), Assay Code: RE1-, Evaluation Type: Evaluation A (Pre-1980)): inactive; negative
- mutagenic call [12]: active; positive
- mutagenic call (Species/Cell Type: Human lymphocytes, Assay Type: Sister-chromatid exchange (SCE) in vitro, Assay Code: SCLT, Evaluation Type: Evaluation B (Post-1980)): no conclusion
- mutagenic call [13]: active; positive
- mutagenic call (Species/Cell Type: Human, Assay Type: Sister-chromatid exchange (SCE) in vitro, Assay Code: SC1T, Evaluation Type: Evaluation B (Post-1980)): no conclusion
- mutagenic call (Species/Cell Type: Mammalian polychromatic erythrocytes, Assay Type: Micronucleus test, chromosome aberrations, Assay Code: MNTT, Evaluation Type: Evaluation B (Post-1980)): no conclusion
- mutagenic call (Species/Cell Type: Mouse (C3H/10T1/2) cells, Assay Type: Cell transformation, Assay Code: CTH-, Evaluation Type: Evaluation A (Pre-1980)): inactive; negative
- mutagenic call (Species/Cell Type: Mouse lymphoma (L5178Y) cells, Assay Type: Forward gene mutation at the thymidine kinase (TK) locus, chromosome aberrations, Assay Code: L51T, Evaluation Type: Evaluation A (Pre-1980)): no conclusion
- mutagenic call (Species/Cell Type: Mouse, Sex: Male, Assay Type: Sperm morphology, Assay Code: SPI-, Evaluation Type: Evaluation A (Pre-1980)): inactive; negative
- mutagenic call (Species/Cell Type: Neurospora crassa, Assay Type: Aneuploidy, chromosome aberrations, Assay Code: NEN-, Evaluation Type: Evaluation A (Pre-1980)): inactive; negative
- mutagenic call (Species/Cell Type: Nonhuman, Assay Type: Sister-chromatid exchange (SCE) in vitro, Assay Code: SC2+D, Dose Response: With dose response, Evaluation Type: Evaluation A (Pre-1980)): active; positive
- mutagenic call [14]: active; positive
- mutagenic call [6]: active; positive
- mutagenic call (Species/Cell Type: Saccharomyces cerevisiae, Assay Type: Aneuploidy, chromosome aberrations, Assay Code: YEN+, Evaluation Type: Evaluation A (Pre-1980)): active; positive
- mutagenic call [11]: active; positive
- mutagenic call (Species/Cell Type: Saccharomyces cerevisiae, Assay Type: Mitotic recombination or gene conversion, Assay Code: YEH+/-*, Activation: With metabolic activation, Evaluation Type: Evaluation A (Pre-1980)): inactive; positive without activation, negative with activation
- mutagenic call (Species/Cell Type: Saccharomyces cerevisiae, Assay Type: Reverse gene mutation, Assay Code: YER+, Evaluation Type: Evaluation A (Pre-1980)): active; positive
- mutagenic call (Species/Cell Type: Salmonella typhimurium (one or more of the five standard strains: TA98, TA100, TA1535, TA1537, and TA1538), Assay Type: Histidine reverse gene mutation, Ames assay, Assay Code: SAL-, Evaluation Type: Evaluation A (Pre-1980)): inactive; negative
- mutagenic call (Species/Cell Type: Salmonella typhimurium, Assay Type: Forward and reverse gene mutation, body fluid assay, Assay Code: BFU+, Evaluation Type: Evaluation A (Pre-1980)): active; positive
- mutagenic call [10]: active; positive
- mutagenic call (Species/Cell Type: Syrian hamster embryo (SHE) cells, Assay Type: Cell transformation, clonal assay, Assay Code: CTC-, Evaluation Type: Evaluation A (Pre-1980)): inactive; negative

Compound: C1CNCCN1
- mutagenic call [10]: active; positive

Compound: O[C@H]1c2ccccc2-c2cc3ccccc3cc2[C@@H]1O
- mutagenic call (Species/Cell Type: Chinese hamster lung (V79) cells, Assay Type: Forward gene mutation at the HPRT or ouabain locus, Assay Code: V79-, Evaluation Type: Evaluation A (Pre-1980)): inactive; negative
- mutagenic call (Species/Cell Type: Mouse prostate cells, Assay Type: Cell transformation, Assay Code: CTM-, Evaluation Type: Evaluation A (Pre-1980)): inactive; negative
- call (Species/Cell Type: Nonhuman, Assay Code: CCGT, Evaluation Type: Evaluation A (Pre-1980)): no conclusion
- mutagenic call [15]: active; positive
- mutagenic call [4]: no conclusion
- mutagenic call (Species/Cell Type: Syrian hamster embryo (SHE) cells, Assay Type: Cell transformation, clonal assay, Assay Code: CTC+, Evaluation Type: Evaluation A (Pre-1980)): active; positive

Compound: O=[Se](O)O
- mutagenic call (Species/Cell Type: Bacillus subtilis (H17 vs M45), Assay Type: Rec-assay, spot test, DNA effects (bacterial DNA repair), Assay Code: REW+, Evaluation Type: Evaluation A (Pre-1980)): active; positive
- mutagenic call [7]: inactive; negative
- mutagenic call [12]: active; positive
- mutagenic call [5]: active; positive
- mutagenic call [13]: active; positive
- mutagenic call [15]: active; positive
- mutagenic call [14]: active; positive
- mutagenic call [3]: active; positive
